In US9290485B2, “N-((6-amino-pyridin-3-yl)methyl)-heteroaryl-carboxamides” (NOVARTIS AG, priority 2010, dated 2016):
Read-outs that look alike come from different tables or passages of the source.

Tests used:
human plasma kallikrein [1] = target: T1, human plasma kallikrein (Homo sapiens (Human), UniProt P03952); assay: biochemical; details: for inhibition at 100 µM: read-out: % inhibition at 100 μM
Experimental: (§1) All other chemicals were of analytical grade.
(§2) A stock solution of 0.17 mg/ml deinonized water was stored at −80° C. Enzymatic reactions were conducted in ‘assay buffer’, comprising 50 mM Hepes/NaOH at pH 7.8, 150 mM NaCl, 1 mM EDTA and 0.05% (w/v) CHAPS.
(§3) Both, enzyme and substrate were diluted in assay buffer.
(§4) All protein and peptide containing solutions were handled in siliconized tubes (Life Systems Design, Merenschwand, Switzerland). […] Plate measurements were conducted by the means of a Safire2 reader (TECAN, Maennedorf, Switzerland). The Safire2 is a monochomator-based instrument and wavelengths of 485 nm and 535 nm were taken for fluorescence excitation and emission acquisition, respectively. The bandwidths were set to 10 nm in both the excitation and the emission path. The fluorescence in each well was excited by three flashes per measurement.
(§5) The test compound was dissolved in 90% (v/v) DMSO/water. For the assays, 250 nL of the 90% (v/v) DMSO/water solution or compound solution were added per well, followed by the addition of 12.5 μl protease solution (protease in assay buffer). […] After 1 hour of pre-incubation at room temperature, the reactions were started by the addition of 12.5 μl substrate solution (in assay buffer, final assay concentration was 0.5 uM). After the addition of the substrate solution, the final DMSO concentration in the assay was 0.9% (v/v). […] The IC50 value was calculated from the plot of percentage of inhibition vs. inhibitor concentration by a logistics fit according to the following equation: y=A2+(A1−A2)/(1+(x/IC50)^p) where y is the %-inhibition at the inhibitor concentration, x. A1 is the lowest inhibition value, i.e. 0%, and A2 the maximum inhibition value, i.e. 100%. The exponent, p, is the Hill coefficient. The curve fitting was conducted with the non-linear regression routine of the analysis software Origin 7.55R6 (OriginLab Corporation).

human plasma kallikrein [2] = target: T1, human plasma kallikrein; details: human plasma kallikrein 25 pM, substrate 0.5 uM, 1 hour pre-incubation at room temperature, read at t=60 min
Experimental: as §1, §2, §3, §4, §5

T1 sequence (P03952 whole entry, looked up): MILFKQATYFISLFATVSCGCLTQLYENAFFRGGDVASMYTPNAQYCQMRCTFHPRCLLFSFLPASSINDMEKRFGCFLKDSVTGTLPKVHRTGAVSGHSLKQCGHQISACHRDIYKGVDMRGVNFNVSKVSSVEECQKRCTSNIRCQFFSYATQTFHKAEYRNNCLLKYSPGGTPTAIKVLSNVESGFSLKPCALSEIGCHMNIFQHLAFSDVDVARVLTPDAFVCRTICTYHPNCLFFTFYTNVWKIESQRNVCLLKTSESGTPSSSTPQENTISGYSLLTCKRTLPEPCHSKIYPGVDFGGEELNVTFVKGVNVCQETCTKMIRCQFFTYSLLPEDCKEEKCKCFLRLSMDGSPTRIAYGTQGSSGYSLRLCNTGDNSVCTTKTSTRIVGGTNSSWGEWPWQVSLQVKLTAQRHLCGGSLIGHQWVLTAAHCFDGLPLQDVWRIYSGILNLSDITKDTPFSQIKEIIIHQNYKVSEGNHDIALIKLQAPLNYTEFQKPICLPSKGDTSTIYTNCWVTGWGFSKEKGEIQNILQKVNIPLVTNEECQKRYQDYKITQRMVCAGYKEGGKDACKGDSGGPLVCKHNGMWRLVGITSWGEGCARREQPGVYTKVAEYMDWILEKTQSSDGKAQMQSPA
T1 sequence (P03952 whole entry partner, looked up): as the sequence (P03952 whole entry, looked up) above

| SMILES | IC50 (human plasma kallikrein [1]) [nM] | IC50 (human plasma kallikrein [2]) [nM] | inhibition at 100 µM (human plasma kallikrein [1]) [%] |
| --- | --- | --- | --- |
| Cc1cc(N)nc(C)c1CNC(=O)c1cnn(Cc2cccc(CO)n2)c1 [Example 99, N-((6-amino-2,4-dimethylpyridin-3-yl)methyl)-1-((6-(hydroxymethyl)pyridin-2-yl)methyl)-1H-pyrazole-4-carboxamide] | 7000 |  |  |
| Cc1cc(N)nc(C)c1CNC(=O)c1cnn(Cc2nc3ccccc3nc2C)c1 [Example 104, N-((6-amino-2,4-dimethylpyridin-3-yl)methyl)-1-((3-methylquinoxalin-2-yl)methyl)-1H-pyrazole-4-carboxamide] | 113 |  |  |
| Cc1cnn(Cc2ccc(Cn3cc(C(=O)NCc4c(C)cc(N)nc4C)cn3)cc2)c1 [Example 146, N-((6-amino-2,4-dimethylpyridin-3-yl)methyl)-1-(4-((4-methyl-1H-pyrazol-1-yl)methyl)benzyl)-1H-pyrazole-4-carboxamide] |  | 0.04 |  |
| Cc1cc(C)n(Cc2ccc(Cn3cc(C(=O)NCc4c(C)cc(N)nc4C)nn3)cc2)n1 [Example 148, N-((6-amino-2,4-dimethylpyridin-3-yl)methyl)-1-(4-((3,5-dimethyl-1H-pyrazol-1-yl)methyl)benzyl)-1H-1,2,3-triazole-4-carboxamide] |  | 0.03 |  |
| Cc1nc(N)cc(OCC(=O)C(C)(C)C)c1CNC(=O)c1cnn(Cc2ccc3ccccc3c2)c1 [Example 149, N-((6-amino-4-(3,3-dimethyl-2-oxobutoxy)-2-methylpyridin-3yl)methyl)-1-(naphthalen-2-ylmethyl)-1H-pyrazole-4-carboxamide] |  | 7.8 |  |
| COCCN1CCCc2ccc(Cn3cc(C(=O)NCc4c(C)cc(N)nc4C)cn3)cc21 [Example 150, N-((6-Amino-2,4-dimethylpyridin-3-yl)methyl)-1-((1-(2-methoxyethyl)-1,2,3,4-tetrahydroquinolin-7-yl)methyl)-1H-pyrazole-4-carboxamide] |  | 10 |  |
| Cc1cc(N)nc(C)c1CNC(=O)c1cnn(Cc2ccc3c(c2)N(C)C(=O)CO3)c1 [Example 151, N-((6-Amino-2,4-dimethylpyridin-3-yl)methyl)-1-((4-methyl-3-oxo-3,4-dihydro-2H-benzo[b][1,4]oxazin-6-yl)methyl)-1H-pyrazole-4-carboxamide] |  | 13 |  |
| Cc1cc(N)nc(C)c1CNC(=O)c1cnn(Cc2ccc3c(c2)N(C)CCC3)c1 [Example 152, N-((6-Amino-2,4-dimethylpyridin-3-yl)methyl)-1-((1-methyl-1,2,3,4-tetrahydroquinolin-7-yl)methyl)-1H-pyrazole-4-carboxamide] |  | 4 |  |
| Cc1ccc2cc(Cn3cc(C(=O)NCc4c(C)cc(N)nc4C)cn3)ccc2n1 [Example 154, N-((6-amino-2,4-dimethylpyridin-3-yl)methyl)-1-((2-methylquinolin-6-yl)methyl)-1H-pyrazole-4-carboxamide] |  | 2 |  |
| Cc1cc(N)nc(C)c1CNC(=O)c1cnn(Cc2cnc3ccccc3c2)c1 [Example 155, N-((6-amino-2,4-dimethylpyridin-3-yl)methyl)-1-(quinolin-3-ylmethyl)-1H-pyrazole-4-carboxamide] |  | 3 |  |
| Cc1ccc2cc(Cn3cc(C(=O)NCc4ccc(N)nc4C)cn3)ccc2n1 [Example 159, N-((6-amino-2-methylpyridin-3-yl)methyl)-1-((2-methylquinolin-6-yl)methyl)-1H-pyrazole-4-carboxamide] |  | 7 |  |
| Cc1nc(N)ccc1CNC(=O)c1cnn(Cc2cc(C(F)(F)F)c3cc(F)ccc3n2)c1 [Example 160, N-((6-amino-2-methylpyridin-3-yl)methyl)-1-((6-fluoro-4-(trifluoromethyl)quinolin-2-yl)methyl)-1H-pyrazole-4-carboxamide] |  | 20 |  |
| Cc1cc(C)c2cc(Cn3cc(C(=O)NCc4ccc(N)nc4C)cn3)c(C)nc2c1 [Example 161, N-((6-amino-2-methylpyridin-3-yl)methyl)-1-((2,5,7-trimethylquinolin-3-yl)methyl)-1H-pyrazole-4-carboxamide] |  | 4 |  |
| Cc1cc(N)nc(C)c1CNC(=O)c1cnn(Cc2cc(C(F)(F)F)c3cc(F)ccc3n2)c1 [Example 162, N-((6-amino-2,4-dimethylpyridin-3-yl)methyl)-1-((6-fluoro-4-(trifluoromethyl)quinolin-2-yl)methyl)-1H-pyrazole-4-carboxamide] |  | 5 |  |
| Cc1cc(N)nc(C)c1CNC(=O)c1cn(Cc2ccc3c(c2)c(C)c(C)n3C)nn1 [Example 166, N-((6-amino-2,4-dimethylpyridin-3-yl)methyl)-1-((1,2,3-trimethyl-1H-indol-5-yl)methyl)-1H-1,2,3-triazole-4-carboxamide] |  | 0.2 |  |
| Cc1nc(N)cc(Cl)c1CNC(=O)c1cnn(Cc2ccc(Cn3ccccc3=O)cc2)c1 [Example 167, N-((6-Amino-4-chloro-2-methylpyridin-3-yl)methyl)-1-(4-((2-oxopyridin-1(2H)-yl)methyl)benzyl)-1H-pyrazole-4-carboxamide] |  | 0.2 |  |

| SMILES | IC50 (human plasma kallikrein [1]) [nM] | IC50 (human plasma kallikrein [2]) [nM] | inhibition at 100 µM (human plasma kallikrein [1]) [%] |
| --- | --- | --- | --- |
| Cc1cc(N)nc(C)c1CNC(=O)c1cnn(Cc2ccc3c(c2)cc(C)n3C)c1 [Example 168, N-((6-Amino-2,4-dimethylpyridin-3-yl)methyl)-1-((1,2-dimethyl-1H-indol-5-yl)methyl)-1H-pyrazole-4-carboxamide] |  | 0.1 |  |
| Cc1cn2cc(Cn3cc(C(=O)NCc4c(C)cc(N)nc4C)cn3)ccc2n1 [Example 169, N-((6-amino-2,4-dimethylpyridin-3-yl)methyl)-1-((2-methylimidazo[1,2-a]pyridin-6-yl)methyl)-1H-pyrazole-4-carboxamide] |  | 3 |  |
| Cc1ccc2cc(Cc3nc(C(=O)NCc4c(C)cc(N)nc4C)co3)ccc2n1 [Example 170, N-((6-amino-2,4-dimethylpyridin-3-yl)methyl)-2-((2-methylquinolin-6-yl)methyl)oxazole-4-carboxamide] |  | 9.7 |  |
| Cc1cc(N)nc(C)c1CNC(=O)c1cnn(Cc2cc3ccsc3c(N)n2)c1 [Example 171, N-((6-Amino-2,4-dimethylpyridin-3-yl)methyl)-1-((7-aminothieno[2,3-c]pyridin-5-yl)methyl)-1H-pyrazole-4-carboxamide] |  | 26 |  |
| Cc1nc(N)cc(Cl)c1CNC(=O)c1cnn(Cc2ccc3ccccc3c2)c1 [Example 172, N-((6-amino-4-chloro-2-methylpyridin-3-yl)methyl)-1-(naphthalen-2-ylmethyl)-1H-pyrazole-4-carboxamide] |  | 60 |  |
| Cc1cc(N)nc(C)c1CNC(=O)c1cnn(Cc2ccc3ncc(Cl)cc3c2)c1 [Example 173, N-((6-Amino-2,4-dimethylpyridin-3-yl)methyl)-1-((3-chloroquinolin-6-yl)methyl)-1H-pyrazole-4-carboxamide] | 0.4 |  |  |
| Cc1cc(N)nc(C)c1CNC(=O)c1cnn(Cc2ccc3c(c2)CCS3(=O)=O)c1 [Example 174, N-((6-amino-2,4-dimethylpyridin-3-yl)methyl)-1-((1,1-dioxido-2,3-dihydrobenzo[b]thiophen-5-yl)methyl)-1H-pyrazole-4-carboxamide] |  | 75 |  |
| Cc1ccc2cc(Cn3cc(C(=O)NCc4c(Cl)cc(N)nc4C)nn3)ccc2n1 [Example 175, N-((6-Amino-4-chloro-2-methylpyridin-3-yl)methyl)-1-((2-methylquinolin-6-yl)methyl)-1H-1,2,3-triazole-4-carboxamide] |  | 61 |  |
| Cc1cc(N)nc(C)c1CNC(=O)c1ccn(S(=O)(=O)c2ccccc2)c1C [Example 176, N-((6-Amino-2,4-dimethylpyridin-3-yl)methyl)-2-methyl-1-(phenylsulfonyl)-1H-pyrrole-3-carboxamide] |  | 45000 |  |
| Cc1cc(N)nc(C)c1CNC(=O)c1cn(Cc2ncccn2)nn1 [Example 178, N-((6-Amino-2,4-dimethylpyridin-3-yl)methyl)-1-(pyrimidin-2-ylmethyl)-1H-1,2,3-triazole-4-carboxamide] |  | 67300 |  |
| Cc1cc(N)nc(C)c1CNC(=O)c1ccn(Cc2ccccc2)c1C [Example 179, N-((6-Amino-2,4-dimethylpyridin-3-yl)methyl)-1-benzyl-2-methyl-1H-pyrrole-3-carboxamide] |  | 85800 |  |
| Cc1nc(N)cc(OC(F)F)c1CNC(=O)c1cnn(Cc2ccccc2)c1 [Example 180, N-((6-Amino-4-(difluoromethoxy)-2-methylpyridin-3-yl)methyl)-1-benzyl-1H-pyrazole-4-carboxamide] |  | > 100000 |  |
| Cc1nc(N)cc(Br)c1CNC(=O)c1cnn(Cc2ccccc2)c1 [Example 181, N-((6-Amino-4-bromo-2-methylpyridin-3-yl)methyl)-1-benzyl-1H-pyrazole-4-carboxamide] |  | 37000 |  |
| Nc1ccc(CNC(=O)c2cnn(Cc3ccccc3)c2)cn1 [Example 182, N-((6-Aminopyridin-3-yl)methyl)-1-benzyl-1H-pyrazole-4-carboxamide] |  | > 100000 | 38 |
| Cc1cc(N)nc(C)c1CNC(=O)c1c(C)c(C)n(S(=O)(=O)c2ccccc2)c1C [Example 183, N-((6-Amino-2,4-dimethylpyridin-3-yl)methyl)-2,4,5-trimethyl-1-(Phenylsulfonyl)-1H-pyrrole-3-carboxamide] |  | > 100000 | 39 |
